Data reported in patent US10131652B2, “Pyrimidinyloxy benzene derivatives as herbicides” (E. I. DU PONT DE NEMOURS AND COMPANY, priority 2014, dated 2018).
Where two headings read alike, the source gives them in different places.

Experiments:
Format in all cases: in vivo
[1] = tested on: green foxtail (Setaria viridis); test: Test E pre-/postemergence plant response; details: scale 0 to 100, read-out: Plant response rating, Foxtail, Green; for pest or weed control at 16 g/ha: 16 g ai/ha; for pest or weed control at 31 g/ha: 31 g ai/ha; for pest or weed control at 62 g/ha: 62 g ai/ha; for pest or weed control at 125 g/ha: 125 g ai/ha
Procedure, shortened: (§1)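 Pre-emergence: seeds sown in silt loam soil and sprayed with test chemicals in a non-phytotoxic solvent/surfactant mix. Post-emergence: plants at 2–18 cm (1- to 4-leaf stage) in peat/vermiculite medium treated with the same formulation. Visual rating versus controls after 7–21 days, 0 (no effect) to 100 (complete control).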

[2] = tested on: Italian ryegrass (Lolium multiflorum); test: Test E pre-/postemergence plant response; details: scale 0 to 100, read-out: Plant response rating, Ryegrass, Italian; for pest or weed control at 16 g/ha: 16 g ai/ha; for pest or weed control at 31 g/ha: 31 g ai/ha; for pest or weed control at 62 g/ha: 62 g ai/ha; for pest or weed control at 125 g/ha: 125 g ai/ha
Procedure, shortened: as §1

kochia (Kochia scoparia) = test: Test F pre-/postemergence plant response; details: Bassia scoparia, pre-emergence, scale 0 to 100, read-out: Plant response rating, Kochia
Procedure, shortened: (§2)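 Two application timings were run side by side: soil surface treatment of freshly planted seed in silt loam, and foliar treatment of seedlings 2 to 18 cm high. Plants stayed in the greenhouse 14 to 21 days before visual 0–100 injury scoring against controls.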

[3] = tested on: velvetleaf (Abutilon theophrasti); test: Test F pre-/postemergence plant response; details: Abutilon theophrasti, pre-emergence, scale 0 to 100, read-out: Plant response rating, Velvetleaf
Procedure, shortened: as §2

[4] = tested on: goosegrass (Eleusine indica); test: Test F pre-/postemergence plant response; details: Eleusine indica, pre-emergence, scale 0 to 100, read-out: Plant response rating, Goosegrass
Procedure, shortened: as §2

[5] = tested on: nightshade (eastern black nightshade, Solanum ptycanthum); test: Test F pre-/postemergence plant response; details: Solanum, pre-emergence, scale 0 to 100, read-out: Plant response rating, Nightshade
Procedure, shortened: as §2

[6] = tested on: lambsquarters (Chenopodium album); test: Test F pre-/postemergence plant response; details: Chenopodium album, pre-emergence, scale 0 to 100, read-out: Plant response rating, Lambsquarters
Procedure, shortened: as §2

[7] = tested on: Italian ryegrass (Lolium multiflorum); test: Test F pre-/postemergence plant response; details: Lolium multiflorum, scale 0 to 100, read-out: Plant response rating, Ryegrass, Italian; for pest or weed control at 16 g/ha: 16 g ai/ha; for pest or weed control at 31 g/ha: 31 g ai/ha; for pest or weed control at 125 g/ha: 125 g ai/ha
Procedure, shortened: as §2

[8] = tested on: yellow nutsedge (Cyperus esculentus); test: Test F pre-/postemergence plant response; details: Cyperus, pre-emergence, scale 0 to 100, read-out: Plant response rating, Nutsedge, Yellow
Procedure, shortened: as §2

[9] = tested on: hairy beggarticks (Bidens pilosa); test: Test F pre-/postemergence plant response; details: Bidens pilosa, scale 0 to 100, read-out: Plant response rating, Beggarticks
Procedure, shortened: as §2

[10] = tested on: field bindweed (Convolvulus arvensis); test: Test F pre-/postemergence plant response; details: Convolvulus arvensis, scale 0 to 100, read-out: Plant response rating, Field Bindweed
Procedure, shortened: as §2

[11] = post-emergence, 8 g ai/ha Postemergence
[12] = pre-emergence, 8 g ai/ha Preemergence
[13] = post-emergence, 16 g ai/ha Postemergence
[14] = post-emergence, 31 g ai/ha Postemergence
[15] = post-emergence, 62 g ai/ha Postemergence
[16] = post-emergence, 125 g ai/ha Postemergence
[17] = pre-emergence, 16 g ai/ha Preemergence
[18] = pre-emergence, 31 g ai/ha Preemergence
[19] = pre-emergence, 62 g ai/ha Preemergence
[20] = pre-emergence, 125 g ai/ha Preemergence

SMILES: FC(F)c1cc(-c2ccccc2Oc2ncc(Cl)cn2)no1 [Compound 35, 5-chloro-2-[2-[5-(difluoromethyl)-3-isoxazolyl]phenoxy]pyrimidine]
- pest or weed control at 16 g/ha ([1]; post-emergence, Postemergence): 20%
- pest or weed control at 31 g/ha ([1]; post-emergence, Postemergence): 35%
- pest or weed control at 62 g/ha ([1]; post-emergence, Postemergence): 55%
- pest or weed control at 125 g/ha ([1]; post-emergence, Postemergence): 55%
- pest or weed control at 16 g/ha ([1]; pre-emergence, Preemergence): 5%
- pest or weed control at 31 g/ha ([1]; pre-emergence, Preemergence): 90%
- pest or weed control at 62 g/ha ([1]; pre-emergence, Preemergence): 90%
- pest or weed control at 125 g/ha ([1]; pre-emergence, Preemergence): 100%
- pest or weed control at 16 g/ha ([2]; post-emergence, Postemergence): 0%
- pest or weed control at 31 g/ha ([2]; post-emergence, Postemergence): 5%
- pest or weed control at 62 g/ha ([2]; post-emergence, Postemergence): 25%
- pest or weed control at 125 g/ha ([2]; post-emergence, Postemergence): 60%
- pest or weed control at 16 g/ha ([2]; pre-emergence, Preemergence): 0%
- pest or weed control at 31 g/ha ([2]; pre-emergence, Preemergence): 25%
- pest or weed control at 62 g/ha ([2]; pre-emergence, Preemergence): 35%
- pest or weed control at 125 g/ha ([2]; pre-emergence, Preemergence): 75%
- pest or weed control at 8 g/ha (kochia (Kochia scoparia); 8 g ai/ha Preemergence): 0%
- pest or weed control at 16 g/ha (kochia (Kochia scoparia); 16 g ai/ha, Preemergence): 40%
- pest or weed control at 31 g/ha (kochia (Kochia scoparia); 31 g ai/ha, Preemergence): 85%
- pest or weed control at 125 g/ha (kochia (Kochia scoparia); 125 g ai/ha, Preemergence): 100%
- pest or weed control at 62 g/ha (kochia (Kochia scoparia); Preemergence): 100%
- pest or weed control at 8 g/ha ([3]; 8 g ai/ha Preemergence): 40%
- pest or weed control at 16 g/ha ([3]; 16 g ai/ha Preemergence): 70%
- pest or weed control at 31 g/ha ([3]; 31 g ai/ha Preemergence): 70%
- pest or weed control at 125 g/ha ([3]; 125 g ai/ha Preemergence): 100%
- pest or weed control at 62 g/ha ([3]; Preemergence): 100%
- pest or weed control at 8 g/ha ([4]; 8 g ai/ha Preemergence): 0%
- pest or weed control at 16 g/ha ([4]; 16 g ai/ha Preemergence): 0%
- pest or weed control at 31 g/ha ([4]; 31 g ai/ha Preemergence): 60%
- pest or weed control at 125 g/ha ([4]; 125 g ai/ha Preemergence): 95%
- pest or weed control at 62 g/ha ([4]; Preemergence): 75%
- pest or weed control at 8 g/ha ([5]; 8 g ai/ha Preemergence): 75%
- pest or weed control at 16 g/ha ([5]; 16 g ai/ha Preemergence): 95%
- pest or weed control at 31 g/ha ([5]; 31 g ai/ha Preemergence): 98%
- pest or weed control at 125 g/ha ([5]; 125 g ai/ha Preemergence): 100%
- pest or weed control at 62 g/ha ([5]; Preemergence): 98%
- pest or weed control at 8 g/ha ([6]; 8 g ai/ha Preemergence): 90%
- pest or weed control at 16 g/ha ([6]; 16 g ai/ha, Preemergence): 98%
- pest or weed control at 31 g/ha ([6]; 31 g ai/ha, Preemergence): 100%
- pest or weed control at 125 g/ha ([6]; 125 g ai/ha, Preemergence): 100%
- pest or weed control at 62 g/ha ([6]; Preemergence): 100%
- pest or weed control at 8 g/ha [7, 11]: 0%
- pest or weed control at 16 g/ha ([7]; post-emergence, Postemergence): 0%
- pest or weed control at 31 g/ha ([7]; post-emergence, Postemergence): 0%
- pest or weed control at 62 g/ha ([7]; post-emergence, 62 g ai/ha, Postemergence): 0%
- pest or weed control at 125 g/ha ([7]; post-emergence, Postemergence): 0%
- pest or weed control at 8 g/ha [7, 12]: 0%
- pest or weed control at 16 g/ha ([7]; pre-emergence, Preemergence): 0%
- pest or weed control at 31 g/ha ([7]; pre-emergence, Preemergence): 15%
- pest or weed control at 125 g/ha ([7]; pre-emergence, Preemergence): 70%
- pest or weed control at 62 g/ha ([7]; pre-emergence, Preemergence): 65%
- pest or weed control at 8 g/ha ([8]; 8 g ai/ha Preemergence): 0%
- pest or weed control at 16 g/ha ([8]; 16 g ai/ha Preemergence): 0%
- pest or weed control at 31 g/ha ([8]; 31 g ai/ha Preemergence): 0%
- pest or weed control at 125 g/ha ([8]; 125 g ai/ha Preemergence): 35%
- pest or weed control at 62 g/ha ([8]; Preemergence): 10%
- pest or weed control at 8 g/ha [9, 11]: 50%
- pest or weed control at 16 g/ha [9, 13]: 50%
- pest or weed control at 31 g/ha [9, 14]: 60%
- pest or weed control at 62 g/ha [9, 15]: 65%
- pest or weed control at 125 g/ha [9, 16]: 70%
- pest or weed control at 8 g/ha [9, 12]: 0%
- pest or weed control at 16 g/ha [9, 17]: 0%
- pest or weed control at 31 g/ha [9, 18]: 20%
- pest or weed control at 62 g/ha [9, 19]: 20%
- pest or weed control at 125 g/ha [9, 20]: 50%
- pest or weed control at 8 g/ha [10, 11]: 20%
- pest or weed control at 16 g/ha [10, 13]: 30%
- pest or weed control at 31 g/ha [10, 14]: 35%
- pest or weed control at 62 g/ha [10, 15]: 50%
- pest or weed control at 125 g/ha [10, 16]: 70%
- pest or weed control at 8 g/ha [10, 12]: 0%
- pest or weed control at 16 g/ha [10, 17]: 35%
- pest or weed control at 31 g/ha [10, 18]: 50%
- pest or weed control at 62 g/ha [10, 19]: 50%
- pest or weed control at 125 g/ha [10, 20]: 50%
